In paper PMC2676941 (The Journal of membrane biology, 2008):

Assays:
[1] = system: plasmodial surface anion channel (PSAC); format: cell-based, Plasmodium falciparum; settings: for concentration to inhibit proline transport versus hydroxyproline transport: data not shown
[2] = system: plasmodial surface anion channel (PSAC); settings: compared with sorbitol and alanine transport; ref Lisk et al. 2007; cited from earlier work

Structure (SMILES): O=C1CN(/N=C/c2ccc(-c3ccc([N+](=O)[O-])cc3)o2)C(O)=N1 [Dantrolene]
- concentration to inhibit proline transport versus hydroxyproline transport [1]: required higher concentrations

Structure (SMILES): O=C(O)c1cc([N+](=O)[O-])ccc1NCCCc1ccccc1 [NPPB]
- hydroxyproline uptake (osmotic lysis over 90 min) ([1]; 10 μM NPPB): abolished
- proline-mediated lysis ([1]; 10 μM NPPB): slowed but not abolished
- higher inhibitor concentration required to comparably reduce proline uptake ([1]; relative to the concentration that abolishes hydroxyproline uptake): 10 fold

Structure (SMILES): COc1ccc(Cl)cc1C(=O)NCCc1ccc(S(=O)(=O)NC(=O)NC2CCCCC2)cc1 [glybenclamide]
- concentration to inhibit proline transport versus hydroxyproline transport [1]: required higher concentrations

Structure (SMILES): O=C(CCc1ccc(O)cc1)c1c(O)cc(O)cc1O[C@@H]1O[C@H](CO)[C@@H](O)[C@H](O)[C@H]1O [phloridzin]
- inhibition of PhTMA-Cl and isoleucine transport [2]: less effectively inhibited
